Experimental data from patent US9101573B2, “Lanthionine synthetase component C-like proteins as molecular targets for preventing and treating diseases and disorders” (VIRGINIA TECH INTELLECTUAL PROPERTIES, INC., priority 2010, dated 2015).

Experiments:
[1] = tested on: pandemic 2009 H1N1 influenza A California/09 virus; test: Pandemic H1N1 influenza virus infection in mice; assay type: in vivo
[2] = tested on: mouse model of DSS-induced colitis; test: DSS-induced colitis (experimental IBD) in C57BL/6J wild-type mice; assay type: in vivo
Description: Six to eight week old C57BL/6J wild-type mice (n=38) were housed at the animal facilities at Virginia Tech. in a room maintained at 75° F., with a 12:12 h light-dark cycle starting from 6:00 AM. Mice were randomly divided into four groups: a control group including 8 mice and the other three NSC61610 treatment groups containing 10 mice each. The three treatment groups received 0.5, 10 or 20 mg/kg NSC61610 by orogastric gavage for 7 days. All the mice were challenged with drinking water containing 2.5% DSS, 36,000-44,000 molecular weight (ICN Biomedicals, Aurora, Ohio) for 7 days. Mice were weighed on a daily basis and examined for clinical signs of disease associated with colitis (i.e., perianal soiling, rectal bleeding, diarrhea, and piloerection). For the DSS challenge, the disease activity indices and rectal bleeding scores were calculated using a modification of a previously published compounded clinical score. Briefly, disease activity index consisted of a scoring for diarrhea and lethargy (0-3), whereas rectal bleeding consisted of a visual observation of blood in feces and the perianal area (0-4). Mice in the DSS study were euthanized on day 7 of the DSS challenge. On day 7, mice were euthanized by CO2 narcosis followed by secondary thoracotomy and blood was withdrawn from the heart. Colon, spleen, and MLN were scored based on size and macroscopic inflammatory lesions (0-3), excised, and then crushed to produce single-cell suspensions for flow cytometry.
Colonic sections were fixed in 10% buffered neutral formalin, later embedded in paraffin, and then sectioned ([…]) and stained with H&E stain for histological examination. Colons were blindly graded with a compounded histological score including the extent of (1) leukocyte infiltration. (2) mucosal thickening, and (3) epithelial cell erosion. The sections were graded with a score of 0-4 for each of the previous categories and data were analyzed as a normalized compounded score.
Total RNA was isolated from colons using the RNA isolation Minikit (Qiagen) according to the manufacturer's instructions. Total RNA ([…]) was used to generate complementary DNA (cDNA) template using the iScript cDNA Synthesis Kit (Bio-Rad, Hercules, Calif.). The total reaction volume was 20 μL with the reaction incubated as follows in an MJ MiniCycler: 5 min at 25° C., 30 min at […], 5 min at 85° C., and hold at 4° C. PCR was performed on the cDNA using Taq DNA polymerase (Invitrogen, Carlsbad, Calif.) and using previously described conditions. Each gene amplicon was purified with the MiniElute PCR Purification Kit (Qiagen) and quantitated on an agarose gel by using a DNA mass ladder (Promega). These purified amplicons were used to optimize real-time (RT)-PCR conditions and to generate standard curves. Primer concentrations and annealing temperatures were optimized for the iCycler iQ system (Bio-Rad) for each set of primers using the system's gradient protocol. PCR efficiencies were maintained between 92 and 105% and correlation coefficients above 0.98 for each primer set during optimization and also during the real-time PCR of sample DNA.
Complementary DNA (cDNA) concentrations for genes of interest were examined by real-time quantitative PCR using an iCycler IQ System and the iQ SYBR green supermix (Bio-Rad). A standard curve was generated for each gene using 10-fold dilutions of purified amplicons starting at 5 pg of cDNA and used later to calculate the starting amount of target cDNA in the unknown samples. SYBR green I is a general double-stranded DNA intercalating dye and may therefore detect non-specific products and primer/dimers in addition to the amplicon of interest. In order to determine the number of products synthesized during the real-time PCR, a melting curve analysis was performed on each product. Real-time PCR was used to measure the starting amount of nucleic acid of each unknown sample of cDNA on the same 96-well plate. […]

[3] = tested on: mouse model of DSS-induced colitis, PPAR γ fl/fl Cre−, CD4-Cre+ and Lysozyme M-Cre+ mice; test: DSS colitis in tissue-specific PPAR γ null mice; assay type: in vivo
Description: PPAR γ fl/fl MMTV-Cre− (n=20), tissue-specific PPAR γ fl/fl CD4-Cre+ ([…]) PPAR γ null mice (n=20) and tissue-specific PPAR γ fl/fl Lsozyme M-Cre+ (macrophage-deficient) PPAR γ null mice (n=20) littermates in a C57BL/6J background were generated by using the Cre-lox recombination system as previously described. The mice were housed at the animal facilities at Virginia Tech. in a room maintained at 75° F., with a 12:12 h light-dark cycle starting from 6:00 AM. In each group, 20 mice were randomly divided into two groups: a control group including 10 mice and a NSC61610 treatment groups containing 10 mice respectively. The three treatment groups received 20 mg/kg NSC61610 by orogastric gavage for 6 days. All the mice (n=60) were challenged with drinking water containing 2.5% DSS, 36,000-44,000 molecular weight (ICN Biomedicals, Aurora, Ohio) for 6 days. Mice were weighed on a daily basis and examined for clinical signs of disease associated with colitis (i.e., perianal soiling, rectal bleeding, diarrhea, and piloerection). For the DSS challenge, the disease activity indices and rectal bleeding scores were calculated using a modification of a previously published compounded clinical score. Briefly, disease activity index consisted of a scoring for diarrhea and lethargy (0-3), whereas rectal bleeding consisted of a visual observation of blood in feces and the perianal area (0-4). Mice in the DSS study were euthanized on day 6 of the DSS challenge. On day 6, mice were euthanized by CO2 narcosis followed by secondary thoracotomy and blood was withdrawn from the heart. Colon, spleen, and MLN were scored based on size and macroscopic inflammatory lesions (0-3), excised, and then crushed to produce single-cell suspensions for flow cytometry.

PPAR γ = PPAR γ reporter activity assay on 3T3-L1 pre-adipocytes; assay type: cell-based; conditions: 2.5 μM, 24 hours, vs untreated cells
Description: 3T3-L1 cells were plated into white, opaque 96-well plates (BD) 24 hours before transfection and grown in DMEM containing 10% fetal bovine serum (FBS) until 70% confluence. Cells were then co-transfected with 0.2 μg pCMX.PPAR γ expression plasmid expression plasmid, 0.2 μg pTK.PPRE3x luciferase reporter plasmid driven by the PPRE-containing Acyl-CoA oxidase promoter and 0.2 μg pRL reporter control using the Lipofectamine 2000 transfection reagent (Invitrogen). After 48 hr incubation at 37° C., cells were then treated in replicates of 8 with NSC61610 2.5 μM or DMSO control and incubated for 24 hr at 37° C. After incubation, cells were harvested in reporter lysis reagent and luciferase activity was determined using the Dual Luciferase II reporter assay system (Promega, Madison, Wis.) in Modulus 96-well luminometer (Turner Biosystems, Sunnyvale, Calif.). All values were normalized to control wells to calculate relative luciferase activity.

LANCL2 = target: T1, LANCL2 (Mus musculus, UniProt Q9JJK2); test: Western blot binding assay between ABA and LANCL2; conditions: RAW 264.7 macrophages treated with ABA for 20 minutes; re-probing western blot; control without ABA showed no band
T1 construct: Proteins were extracted from Raw 264.7 Macrophage using Radio-Immunoprecipitation Assay buffer; endogenous in cells; host or cells: RAW 264.7 macrophages
T1 sequence (Q9JJK2 1-450): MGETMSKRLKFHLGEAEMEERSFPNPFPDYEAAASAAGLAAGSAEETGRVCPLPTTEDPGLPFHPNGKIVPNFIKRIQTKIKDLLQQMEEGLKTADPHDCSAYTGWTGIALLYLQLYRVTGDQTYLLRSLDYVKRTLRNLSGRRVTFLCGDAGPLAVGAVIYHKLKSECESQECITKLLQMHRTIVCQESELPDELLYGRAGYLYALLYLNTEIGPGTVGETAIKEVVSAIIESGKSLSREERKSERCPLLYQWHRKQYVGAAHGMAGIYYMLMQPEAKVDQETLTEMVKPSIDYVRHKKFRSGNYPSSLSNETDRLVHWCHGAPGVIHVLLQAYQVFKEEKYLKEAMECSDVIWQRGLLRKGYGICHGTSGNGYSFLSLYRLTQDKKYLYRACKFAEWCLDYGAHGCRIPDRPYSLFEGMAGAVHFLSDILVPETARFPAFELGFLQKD
Description: RAW 264.7 macrophages were cultured with DMEM (Mediatech, Manassas, Va.) containing 10% fetal bovine serum (FBS) in two flasks and grown until 60-70% confluence. RAW 264.7 macrophages in one flask were treated with abscisic acid (SIGMA-ALDRICH) for 20 minutes. RAW 264.7 macrophages in the other flask without ABA were used as control. Proteins were extracted from Raw 264.7 Macrophage using Radio-Immunoprecipitation Assay buffer (RIPA) (SIGMA-ALDRICH) with inhibitors. 10% SDS-PAGE was applied to analyze the proteins in Bio-Rad mini-gel box running condition. For Western blotting, proteins were electrotransferred to nitrocellulose by standard methods along with the Presicion Plus Kaleidoscope Standard (BIO-RAD). Filters were blocked by 5% BSA in TBS-Tween for 1 hour, followed by incubation with rabbit anti-LANCL2 primary antibody (SIGMA-ALDRICH) in TBS-Tween for 6 hours at room temperature. Goat anti-rabbit horseradish peroxidase-conjugated secondary antibodie (Santa Cruz Biotechnology) was used 1:2,000 in TBS-Tween, and protein bands were detected with Immun-Star™ chemiluminescent substrate (BIO-RAD). […] Donkey anti-rat horseradish peroxidase-conjugated secondary antibodie (Santa Cruz Biotechnology) was used 1:2,000 in TBS-Tween, and protein bands were detected with Immun-Star™ chemiluminescent substrate (BIO-RAD).

[4] = target: T2, ligand-binding domain (LBD) of PPAR γ (Homo sapiens, UniProt P37231); test: Binding of ABA to PPAR γ LBD (unpublished data)
T2 sequence (P37231 238-503 limits assumed): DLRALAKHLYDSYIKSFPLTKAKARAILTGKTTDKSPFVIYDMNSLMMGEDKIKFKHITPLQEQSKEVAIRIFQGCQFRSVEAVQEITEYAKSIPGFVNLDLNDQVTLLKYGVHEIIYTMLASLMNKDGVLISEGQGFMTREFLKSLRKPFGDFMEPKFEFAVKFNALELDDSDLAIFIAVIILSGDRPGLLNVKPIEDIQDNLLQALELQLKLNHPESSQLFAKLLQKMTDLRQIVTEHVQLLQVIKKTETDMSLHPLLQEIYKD

[5] = 0.5, 10 and 20 mg/kg, day 7 of DSS
[6] = highest concentration, flow cytometry

O=C(Nc1cccc(-c2nc3ccccc3[nH]2)c1)c1ccc(C(=O)Nc2cccc(-c3nc4ccccc4[nH]3)c2)cc1 [NSC61610, 1-N,4-N-bis[3-(1H-benzimidazol-2-yl)phenyl]benzene-1,4-dicarboxamide]
antigen-specific proliferation of splenocytes stimulated ex vivo with live virus ([1]; day 13 post-infection, irrespective of genotype): higher | extent of lung congestion and hyperemia (macroscopic and histological score) ([1]; infected mice, 20 mg/kg): reduced | influenza-related weight loss ([1]; infected mice, 20 mg/kg orogastric gavage daily, vs untreated infected mice): lower weight loss | body weight ([1]; infected treated mice, by day 13): began to gain weight | disease activity index (DAI) ([2]; 0.5, 10 and 20 mg/kg BW orogastric gavage, 7 days, 2.5% DSS, vs untreated control mice): significantly reduced | gross inflammation in MLN [2, 5]: significantly reduced | gross inflammation in colon [2, 5]: significantly reduced | gross inflammation in spleen [2, 5]: significantly reduced | numbers of mesenteric lymph node (MLN) Treg ([2]; flow cytometry): No effect | percentage of F4/80+CD11b+ macrophages in the colonic lamina propria ([2]; flow cytometry): reduced | percentage of Treg cells in blood ([2]; flow cytometry): significantly increased | percentage of Treg cells in colon ([2]; flow cytometry): significantly increased | percentage of Treg cells in spleen ([2]; flow cytometry): significantly increased | percentage of CD4+ IL10+ T cells in MLN [2, 6]: significantly increased | percentage of CD4+ IL10+ T cells in blood [2, 6]: significantly increased | percentage of CD4+ IL10+ T cells in colon [2, 6]: significantly increased | percentage of CD4+ IL10+ T cells in spleen [2, 6]: significantly increased | PPAR γ gene expression in colon ([2]; maximum dose 20 mg/kg): enhanced PPAR γ gene expression significantly | epithelial erosion (colon histology) ([2]; mice with DSS colitis): significantly reduced | leukocyte infiltration (colon histology) ([2]; mice with DSS colitis): significantly reduced | mucosal thickening (colon histology) ([2]; mice with DSS colitis): significantly reduced | colonic expression of IL-6 ([2]; real-time quantitative PCR): significantly lowered | colonic expression of MCP-1 ([2]; real-time quantitative PCR): significantly lowered | colonic expression of TNF-α ([2]; real-time quantitative PCR): significantly lowered | PPAR γ gene expression in colon ([2]; real-time quantitative PCR, vs control mice): increased | disease activity index ([3]; 20 mg/kg BW for 6 days during DSS challenge, vs untreated control mice): significantly reduced | macroscopic inflammatory lesions ([3]; PPAR γ-expressing mice with DSS colitis, 20 mg/kg): significantly reduced | macroscopic inflammatory lesions ([3]; T cell-specific PPAR γ null mice with DSS colitis, 20 mg/kg): significantly reduced | effect on IBD in MLNs and spleens ([3]; macrophage-specific PPAR γ null mice, 20 mg/kg): abrogated | PPAR γ expression (dual luciferase reporter) (PPAR γ): significantly elevated

CC1=CC(=O)CC(C)(C)[C@@]1(O)/C=C/C(C)=C\C(=O)O [abscisic acid, [S-(Z,E)]-5-(1-Hydroxy-2,6,6-trimethyl-4-oxo-2-cyclohexen-1-yl)-3-methyl-2,4-pentanedienoic acid]
band with anti-ABA antibody at the LANCL2 location on the membrane (LANCL2): clear band | direct binding to the LBD of PPAR γ [4]: does not bind directly
